Measured values as given in BindingDB's records for patent WO2023001061 (Jingrui Biopharma, 2023).
pIC50: −log10 of the molar value.

Target: CDK-activating kinase assembly factor MAT1/Cyclin-H/Cyclin-dependent kinase 7 (Homo sapiens, UniProt P50613)
Test: In Vitro Kinase assay (CDK7) and IC 50 determination
Experimental: The kinase assay was carried out by Sundia MediTech Co., Ltd.

CDK-activating kinase assembly factor MAT1/Cyclin-H/Cyclin-dependent kinase 7, sequence (P51946 whole entry): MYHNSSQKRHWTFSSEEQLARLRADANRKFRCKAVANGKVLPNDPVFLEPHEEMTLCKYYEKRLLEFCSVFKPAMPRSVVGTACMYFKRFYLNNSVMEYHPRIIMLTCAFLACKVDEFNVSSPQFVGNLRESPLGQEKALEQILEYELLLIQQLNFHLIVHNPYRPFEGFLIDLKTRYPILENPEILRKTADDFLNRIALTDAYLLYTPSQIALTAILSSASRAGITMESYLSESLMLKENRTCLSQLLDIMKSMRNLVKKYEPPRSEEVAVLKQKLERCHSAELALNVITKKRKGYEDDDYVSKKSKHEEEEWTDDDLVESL
CDK-activating kinase assembly factor MAT1/Cyclin-H/Cyclin-dependent kinase 7, sequence (P50613 whole entry): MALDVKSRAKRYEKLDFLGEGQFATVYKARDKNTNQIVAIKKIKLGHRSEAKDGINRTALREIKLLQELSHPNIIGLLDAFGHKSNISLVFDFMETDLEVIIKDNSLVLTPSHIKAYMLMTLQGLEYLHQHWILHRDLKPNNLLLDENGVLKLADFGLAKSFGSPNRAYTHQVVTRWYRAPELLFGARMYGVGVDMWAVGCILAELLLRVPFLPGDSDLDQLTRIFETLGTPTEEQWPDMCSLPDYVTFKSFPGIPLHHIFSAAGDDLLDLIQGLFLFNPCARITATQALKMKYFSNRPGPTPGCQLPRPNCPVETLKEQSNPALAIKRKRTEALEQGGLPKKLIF
CDK-activating kinase assembly factor MAT1/Cyclin-H/Cyclin-dependent kinase 7, sequence (P51948 whole entry, further chain): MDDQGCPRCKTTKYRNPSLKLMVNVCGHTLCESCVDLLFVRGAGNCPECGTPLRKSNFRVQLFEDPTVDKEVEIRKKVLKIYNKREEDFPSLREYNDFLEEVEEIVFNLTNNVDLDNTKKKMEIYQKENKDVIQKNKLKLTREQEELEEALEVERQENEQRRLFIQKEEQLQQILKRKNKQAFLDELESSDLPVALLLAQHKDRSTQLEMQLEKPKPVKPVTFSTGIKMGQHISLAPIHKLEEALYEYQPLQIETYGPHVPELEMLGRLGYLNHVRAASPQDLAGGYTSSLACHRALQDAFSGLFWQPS

| SMILES | pIC50 |
| --- | --- |
| CC(C)c1cnn2c(NCC3CCCN3C)cc(NC[C@H]3CCNC[C@@H]3O)nc12 (stereo not given in full) [WO2023001061, Example 2] | > 7.30 |
| CC(C)c1cnn2c(NCc3ccnn3C)cc(NC[C@H]3CCNC[C@@H]3O)nc12 [WO2023001061, Example 6] | > 7.30 |
| CC(C)c1cnn2c(NCC3CCCN3C)cc(OC3CCN(C)CC3)nc12 (stereo not given) [WO2023001061, Example 8] | > 6.30 |
| CC(C)c1cnn2c(NCc3ccnn3C(C)C)cc(NC[C@H]3CCNC[C@@H]3O)nc12 [WO2023001061, Example 10] | > 7.30 |
| CC(C)c1cnn2c(NCc3ccnn3C3CC3)cc(NC[C@H]3CCNC[C@@H]3O)nc12 [WO2023001061, Example 11] | > 7.30 |
| CC(C)c1cnn2c(NCc3nccn3C)cc(NC[C@H]3CCNC[C@@H]3O)nc12 [WO2023001061, Example 14] | > 7.30 |
| CC(C)c1cnn2c(NCc3cccnc3N(C)C)cc(NC[C@H]3CCNC[C@@H]3O)nc12 [WO2023001061, Example 15] | > 7.30 |
| CC(C)c1cnn2c(NCC3CCCN3C)nc(OC3CCN(C)CC3)nc12 (stereo not given) [WO2023001061, Example 23] | > 6.30 |
| CC(C)c1cnn2c(NCc3ccnn3C)nc(OC3CCN(C)CC3)nc12 [WO2023001061, Example 26] | > 7.30 |
| CC(C)c1cnn2c(NCc3ccc4cccc(N(C)C)c4n3)nc(OC3CCN(C)CC3)nc12 [WO2023001061, Example 27] | > 7.30 |
| Cc1cc(CNc2nc(OC3CCN(C)CC3)nc3c(C(C)C)cnn23)n(C2CC2)n1 [WO2023001061, Example 28] | > 7.30 |
| CC(C)c1cnn2c(NCc3ccn(C)n3)cc(NC[C@H]3CCNC[C@@H]3O)nc12 [WO2023001061, Example 29] | > 7.30 |
| CC(C)c1cnn2c(NCc3nc4ccccc4s3)cc(NC[C@H]3CCNC[C@@H]3O)nc12 [WO2023001061, Example 30] | > 7.30 |
| CC(C)c1cnn2c(NCc3nn(C)c4ccccc34)cc(NC[C@H]3CCNC[C@@H]3O)nc12 [WO2023001061, Example 35] | > 7.30 |
| CC(C)c1cnn2c(NCc3nc4ccccc4n3C)cc(NC[C@H]3CCNC[C@@H]3O)nc12 [WO2023001061, Example 36] | > 7.30 |
| CC(C)c1cnn2c(NCc3nc4cc(C(F)(F)F)ccc4s3)cc(NC[C@H]3CCNC[C@@H]3O)nc12 [WO2023001061, Example 38] | > 7.30 |
| CC(C)c1cnn2c(NCc3nc(C4CC4)cs3)cc(NC[C@H]3CCNC[C@@H]3O)nc12 [WO2023001061, Example 48] | > 7.30 |

The next lines start with the values.

| pIC50 | SMILES |
| --- | --- |
| > 7.30 | CC(C)c1cnn2c(NCc3ccccc3N(C)C)cc(OC3CCN(C)CC3)nc12 [WO2023001061, Example 1] |
| > 7.30 | CC(C)c1cnn2c(NCc3nc4cc(N(C)C)ccc4s3)cc(NC[C@H]3CCNC[C@@H]3O)nc12 [WO2023001061, Example 4] |
| > 7.30 | CC(C)c1cnn2c(NCc3ccc4cccc(N(C)C)c4n3)cc(NC[C@H]3CCNC[C@@H]3O)nc12 [WO2023001061, Example 5] |
| > 7.30 | CC(C)c1cnn2c(NCc3ccnn3C)cc(OC3CCN(C)CC3)nc12 [WO2023001061, Example 7] |
| > 7.30 | CC(C)c1cnn2c(NCc3ccn[nH]3)cc(NC[C@H]3CCNC[C@@H]3O)nc12 [WO2023001061, Example 9] |
| > 7.30 | CC(C)c1cnn2c(NCc3cncn3C)cc(NC[C@H]3CCNC[C@@H]3O)nc12 [WO2023001061, Example 13] |
| > 7.30 | CC(C)c1cnn2c(NCc3nccs3)cc(NC[C@H]3CCNC[C@@H]3O)nc12 [WO2023001061, Example 31] |
| > 7.30 | CC(C)c1cnn2c(NCc3nc4cc(Cl)ccc4s3)cc(NC[C@H]3CCNC[C@@H]3O)nc12 [WO2023001061, Example 39] |
